In general, EC50 refers to the midpoint of the concentration-response curve. High values mean a less potent agent, low ones a more potent agent.

One test has as its target T1, Solute carrier family 12 member 5 (Homo sapiens, UniProt Q9H2X9).
T1 sequence (Q9H2X9 whole entry): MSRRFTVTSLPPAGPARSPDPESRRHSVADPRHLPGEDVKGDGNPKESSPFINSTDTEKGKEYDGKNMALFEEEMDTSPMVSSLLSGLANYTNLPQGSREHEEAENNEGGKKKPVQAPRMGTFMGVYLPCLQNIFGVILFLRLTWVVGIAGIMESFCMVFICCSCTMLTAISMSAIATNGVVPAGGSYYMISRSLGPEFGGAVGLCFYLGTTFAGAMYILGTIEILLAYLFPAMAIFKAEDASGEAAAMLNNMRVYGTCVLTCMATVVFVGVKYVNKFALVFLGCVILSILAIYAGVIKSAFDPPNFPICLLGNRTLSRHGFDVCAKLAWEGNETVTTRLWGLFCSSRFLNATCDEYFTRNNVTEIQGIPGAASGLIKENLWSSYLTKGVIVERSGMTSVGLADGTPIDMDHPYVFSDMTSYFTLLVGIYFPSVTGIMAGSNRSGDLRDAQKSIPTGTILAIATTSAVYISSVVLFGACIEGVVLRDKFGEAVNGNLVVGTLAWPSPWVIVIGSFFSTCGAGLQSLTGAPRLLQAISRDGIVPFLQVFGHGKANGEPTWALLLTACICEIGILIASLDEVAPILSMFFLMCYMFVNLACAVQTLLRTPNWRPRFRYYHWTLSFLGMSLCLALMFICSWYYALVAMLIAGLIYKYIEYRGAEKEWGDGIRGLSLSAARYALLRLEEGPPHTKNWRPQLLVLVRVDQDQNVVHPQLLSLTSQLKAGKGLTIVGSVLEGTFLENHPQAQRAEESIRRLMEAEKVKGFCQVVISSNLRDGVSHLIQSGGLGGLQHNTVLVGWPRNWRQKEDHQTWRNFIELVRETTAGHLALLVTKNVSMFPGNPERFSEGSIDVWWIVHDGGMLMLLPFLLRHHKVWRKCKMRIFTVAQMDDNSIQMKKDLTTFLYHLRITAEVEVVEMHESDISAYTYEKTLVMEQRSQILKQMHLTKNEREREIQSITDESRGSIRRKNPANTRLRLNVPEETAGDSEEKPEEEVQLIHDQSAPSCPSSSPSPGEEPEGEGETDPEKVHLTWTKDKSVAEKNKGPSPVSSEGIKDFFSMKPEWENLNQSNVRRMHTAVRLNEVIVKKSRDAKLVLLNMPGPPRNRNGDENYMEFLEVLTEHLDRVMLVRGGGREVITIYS
Kind of test: KCC2 modulator potency by thallium flux, dose response, cell-based, HEK293 KCC2, FluoZin-2 fluorescence (AID 1736).
Conditions: not given
Turning to `Cc1ccc(-c2csc(NC(=O)CCNC(=O)c3ccccc3Cl)n2)cc1` [2-chloranyl-N-[3-[[4-(4-methylphenyl)-1,3-thiazol-2-yl]amino]-3-oxidanylidene-propyl]benzamide], the EC50 amounted to 2.49 µM.

Take `O=C(Cn1c(-c2ccc(Cl)cc2)noc1=O)N1CCN(c2ccccc2F)CC1` [3-(4-Chloro-phenyl)-4-{2-[4-(2-fluoro-phenyl)-piperazin-1-yl]-2-oxo-ethyl}-4H-[1,2,4]oxadiazol-5-one]: a half-maximal effect (EC50) was put at 228 µM.

With `Cc1[nH]c2ccccc2c1Cc1n[nH]c(=S)n1C`, the EC50 was 6.59 µM.

With `Cc1c(N=C2Nc3cccc4cccc2c34)c(=O)n(-c2ccccc2)n1C` [4-(2-benzo[cd]indolylamino)-1,5-dimethyl-2-phenyl-3-pyrazolone], the midpoint of the response, the EC50, lay at 1.48 µM. Compared with the last compound, the EC50 is about 4.5-fold lower.

In turn, `O=S(=O)(NCc1ccccc1)c1ccc(Cl)c(S(=O)(=O)NCc2ccccc2)c1` [1-N,3-N-dibenzyl-4-chlorobenzene-1,3-disulfonamide] came in with an EC50 of 2.34 µM.

Regarding `CN(Cc1ccccc1)c1nc2nonc2nc1N1CCCC(CN2CCCC2=O)C1` (centres undefined) [1-[(1-{6-[benzyl(methyl)amino][1,2,5]oxadiazolo[3,4-b]pyrazin-5-yl}piperidin-3-yl)methyl]pyrrolidin-2-one], it took 2.43 µM to reach a half-maximal effect (EC50).

Compound `Fc1ccc(CSc2nncn2NC/C=C/c2ccccc2)cc1` [3-[(4-fluorobenzyl)thio]-N-(3-phenyl-2-propen-1-yl)-4H-1,2,4-triazol-4-amine] yielded an EC50 of 30.2 µM.

In the case of `CC(C)c1onc(C(=O)N2CCN(Cc3ccccc3)CC2)c1[N+](=O)[O-]` [(4-benzylpiperazin-1-yl)-(4-nitro-5-propan-2-yl-1,2-oxazol-3-yl)methanone], the EC50 is 0.34 µM.

On to `COc1cc(C=NNC(=O)CN(Cc2ccccc2)S(=O)(=O)c2ccc3c(c2)OCCO3)ccc1O` [2,3-Dihydro-benzo[1,4]dioxine-6-sulfonic acid benzyl-(4-hydroxy-3-methoxy-benzylidene-hydrazinocarbonylmethyl)-amide], for which the EC50 was found to be 2.79 µM.

`Sc1nnc(COc2ccc(Cl)cc2)o1` [5-(4-Chloro-phenoxymethyl)-3H-[1,3,4]oxadiazole-2-thione] registered an EC50 of 9.34 µM.

`N#Cc1nc(Cc2cccc3ccccc23)oc1N1CCOCC1` [5-(4-morpholinyl)-2-(1-naphthalenylmethyl)-4-oxazolecarbonitrile] registered an EC50 of 1.32 µM.

In turn, `O=C(NNc1nc(-c2ccccc2)cs1)c1ccccc1` [MLS000547345] displayed an EC50 of 0.024 µM.

`N#Cc1nc(Cc2cccc3ccccc23)oc1NCCN1CCOCC1` [5-(2-Morpholin-4-yl-ethylamino)-2-naphthalen-1-ylmethyl-oxazole-4-carbonitrile] returned an EC50 of 5.4 µM.

As to `CSCCC(=O)N1CCCC(CNC(=O)c2ccc(-c3ccccc3)cc2)C1` (centres undefined) [MLS000733867], the EC50 came to 7.78 µM.

In turn, `CN(CC(=O)N1CCN(Cc2ccccc2)CC1)S(=O)(=O)c1cccc2nsnc12` [MLS000674627] displayed an EC50 of 0.58 µM. Against the preceding compound, the EC50 is about 13-fold lower.

Consider `O=[N+]([O-])c1ccccc1C=C[CH+][N-]n1c(-c2ccc(Cl)cc2)n[nH]c1=S` [MLS000555506], for which the EC50 amounted to 23.6 µM.

Regarding `CCC(Cc1ccccc1)NC(=O)CN(C)S(=O)(=O)c1ccc2c(c1)c(=O)n(C)c(=O)n2C` (centres undefined) [2-[(1,3-dimethyl-2,4-dioxo-6-quinazolinyl)sulfonyl-methylamino]-N-(1-phenylbutan-2-yl)acetamide], the EC50 was found to be 7.26 µM.

`Fc1cccc(F)c1C=NNC(=S)Nc1cccnc1` [1-[(2,6-difluorobenzylidene)amino]-3-(3-pyridyl)thiourea] returned an EC50 of 6.93 µM. This EC50 and that of the compound before are within 1.5-fold of each other.

Turning to `CCN(CC)S(=O)(=O)c1ccc(NC(=O)CSc2ncnc3ccccc23)cc1` [MLS000393282], a half-maximal effect (EC50) was put at 1.1 µM. This EC50 is about 6.3-fold lower than that of the compound before.

With `O=C(NC1CCCC1)C(c1ccncc1)N(Cc1ccco1)C(=O)c1ccc(-c2ccccc2)[nH]1` (centres undefined) [MLS000718066], it took 19.2 µM to reach a half-maximal effect (EC50).

Compound `Cc1cccc(OCCc2nnc(N)s2)c1C` [5-[2-(2,3-Dimethyl-phenoxy)-ethyl]-[1,3,4]thiadiazol-2-ylamine] showed an EC50 of 37.5 µM.

The compound `O=C(CSc1nnc(-c2c[nH]c3ccccc23)o1)N1CCCCC1` [SMR000003748] displayed an EC50 of 1.81 µM.

As to `COCCN1C(=O)/C(=C/c2ccc(OCc3ccc(C(=O)O)cc3)c(OC)c2)S/C1=N/c1ccccc1` [4-[(2-methoxy-4-{[3-(2-methoxyethyl)-4-oxo-2-(phenylimino)-1,3-thiazolidin-5-ylidene]methyl}phenoxy)methyl]benzoic acid], a half-maximal effect (EC50) was put at 44.9 µM.

Regarding `O=C(OCC(=O)N1CCN(C(=O)c2ccco2)CC1)c1sc2ccccc2c1Cl` [3-chloro-1-benzothiophene-2-carboxylic acid [2-[4-[2-furanyl(oxo)methyl]-1-piperazinyl]-2-oxoethyl] ester], the EC50 was determined as 0.478 µM.

Compound `CCn1c(CCNC(=O)c2cccs2)nnc1SCC(=O)Nc1nc(-c2ccccc2)cs1` [MLS000548611] came in with a concentration for a half-maximal effect (EC50) of 4.57 µM.

The compound `S=C(NCCc1ccccc1)NN=Cc1cccc(Cl)c1Cl` [1-[(2,3-dichlorobenzylidene)amino]-3-phenethyl-thiourea] came in with an EC50 of 47.6 µM.

As to `COc1cccc(C=c2sc(=CC(=O)c3ccc(C)cc3)[nH]c2=O)c1OC` [5-[(2,3-dimethoxyphenyl)methylidene]-2-[2-(4-methylphenyl)-2-oxidanylidene-ethylidene]-1,3-thiazolidin-4-one], the EC50 worked out at 15.5 µM.

In turn, `O=C(O)/C=C/c1cn(Cc2ccccc2Cl)nc1-c1ccccc1` [(E)-3-[1-(2-chlorobenzyl)-3-phenyl-pyrazol-4-yl]acrylic acid] yielded an EC50 of 3.26 µM.

On to `O=C(c1ccc(S(=O)(=O)c2cccc(Cl)c2)c([N+](=O)[O-])c1)N1CCN(c2ccccn2)CC1` [1-{4-[(3-chlorophenyl)sulfonyl]-3-nitrobenzoyl}-4-pyridin-2-ylpiperazine], for which the response was half-maximal at 6.85 µM (EC50). This EC50 lies about 2.1-fold higher than the previous one.

`CN1/C(=C\C(=S)NC(=O)c2cccc(Br)c2)C(C)(C)c2ccccc21` [SMR000254682]: a half-maximal response (EC50) required 5.4 µM.

`Cc1nc(SCc2ccc(F)cc2)c([N+](=O)[O-])[nH]1` [SMR000271028] showed an EC50 of 6.28 µM.

Compound `CC(=NNC(=S)Nc1c(C)cccc1C)c1cc2ccccc2o1` [SMR000260555] came in with an EC50 of 4.46 µM. The EC50 values of the last two compounds are within 1.5-fold of each other.

Regarding `Cc1ccc(NC(=O)CCCSc2ccccc2)cc1S(=O)(=O)N1CCOCC1` [MLS000761060], the EC50 came out at 6.79 µM.

In turn, `CCn1c(=O)n(CC)c2cc(S(=O)(=O)N3CCC(c4ccccc4)CC3)ccc21` [1,3-diethyl-5-(4-phenylpiperidin-1-yl)sulfonyl-benzimidazol-2-one] returned an EC50 of 10.8 µM.

In turn, `Cc1ccc(-c2noc(CN3CCN(Cc4ccccc4)CC3)n2)cc1` [1-benzyl-4-{[3-(4-methylphenyl)-1,2,4-oxadiazol-5-yl]methyl}piperazine] gave an EC50 of 6.64 µM.

In turn, `Cc1cc([N+](=O)[O-])ccc1NCc1ccccc1` [2-methyl-4-nitro-N-(phenylmethyl)aniline] registered an EC50 of 1.74 µM.

`Cc1ccc(/C=C2\SC(=S)N(c3c(C)n(C)n(-c4ccccc4)c3=O)C2=O)cc1` [3-(1,5-dimethyl-3-oxo-2-phenyl-2,3-dihydro-1H-pyrazol-4-yl)-5-(4-methylbenzylidene)-2-thioxo-1,3-thiazolidin-4-one]: a half-maximal effect (EC50) was put at 0.13 µM. Compared with the last compound, the EC50 is about 13-fold lower.

With `Cc1ccc(/C=C2/Sc3ccccc3N(CC(=O)NCCCOC(C)C)C2=O)cc1` [2-[(2E)-2-[(4-methylphenyl)methylidene]-3-oxidanylidene-1,4-benzothiazin-4-yl]-N-(3-propan-2-yloxypropyl)ethanamide], a half-maximal response (EC50) required 964 µM.

`CSc1ccccc1N=C(S)Nc1ccc(S(N)(=O)=O)cc1` [1-(2-methylsulfanylphenyl)-3-(4-sulfamoylphenyl)thiourea]: the EC50 is 38.4 µM.

The test is the same for the next values; noted with them: inactive by the depositor's call.
For the compound `CC(/C=C1\SC(=S)N(C(C(=O)O)C(C)C)C1=O)=C\c1ccccc1` (centres undefined) [MLS000713304], a half-maximal response (EC50) required 2.68 µM.

Regarding `CCCn1c(NC(=S)Nc2ccccc2)nc2ccccc21` [1-phenyl-3-(1-propyl-2-benzimidazolyl)thiourea], it took 60400 µM to reach a half-maximal effect (EC50). Compared with the last compound, the EC50 is about 23000-fold higher.

Consider `CC(C)c1ccc(C=NNC(=O)c2ccccc2Cl)cc1` [2-chloranyl-N-[(4-propan-2-ylphenyl)methylideneamino]benzamide], for which it took 45.8 µM to reach a half-maximal effect (EC50).

In turn, `COc1ccc(OC)c2sc(NNC(=O)COc3ccccc3)nc12` [MLS000419249] gave an EC50 of 2.62 µM.

For the compound `O=c1oc2ccccc2c(Nc2cc3ccccc3cc2O)c1[N+](=O)[O-]` [3-nitro-4-[(3-oxidanylnaphthalen-2-yl)amino]chromen-2-one], the response was half-maximal at 11.4 µM (EC50). This EC50 is about 4.4-fold higher than that of the compound before.
